The text below walks through data of paper PMC8474116, “Discovery of Novel Acetamide-Based Heme Oxygenase-1 Inhibitors with Potent In Vitro Antiproliferative Activity” (Journal of Medicinal Chemistry, 2021).

Structures are written as SMILES. In brackets after ≈: the same amount, converted by molar mass.

For orientation: solubility means the dissolved amount per volume that the medium holds. As usually defined, the microsomal CLint is the rate of metabolic loss divided by the concentration. By Papp A→B is commonly meant the apparent permeability from the apical to the basolateral side of a cell layer. A high value points to ready permeation. One may read the Papp B→A as how fast a substance crosses the layer from the basolateral side.

Data set [1] is described as follows: Aqueous solubility in simulated gastric fluid (Eurofins). Format: physicochemical. The procedure:
In vitro ADMET testing has been performed at Eurofins Scientific. Aqueous solubility in simulated gastric fluid (catalogue product number 2061), intrinsic clearance in liver microsome-human (catalogue product number 607), CYP2D6 and CYP3A4 inhibition (catalogue product numbers 1338 and 391, respectively), and hERG human potassium ion channel binding (catalogue product number 4094) were conducted at Eurofins following their experimental protocols (https://www.eurofins.com/).

The subject of the next data set is U87MG cells. Kind of data set: Wound-healing assay, U87MG. The conditions noted are these: 10 μM, vs control at 24 and 48 h. Type of data set: cell-based, human. The procedure: U87MG cells grown to confluence in 6-well dishes (5 × 10^4 cells/well) were scratched with a 200 μL pipette tip. Cells were cultured in a 1% serum medium with or without 10 μM of 7l. Quantitative assessment of the wound area was performed under an inverted microscope, as previously described.[63] The distance that the advancing cells had moved into the wound area was measured after 24 and 48 h. The migration was calculated as the average number of cells observed in three random of high-power wounded fields/per well in duplicate wells and expressed in percentage of control (% of control).

A short description of data set [2]: Microsomal stability, human liver microsome assay (Eurofins). Format: in vitro ADME. The conditions noted are these: human liver microsomes, protein 0.1 mg/mL. The source says: In vitro ADMET testing has been performed at Eurofins Scientific.
For orientation: Liver microsomes are vesicles of endoplasmic reticulum, rich in cytochrome P450 enzymes.

In the next data set the test system is VEGF. Kind of data set: VEGF intracellular expression by Western blot, U87MG. The conditions noted are these: 10 μM, 48 h. Format: cell-based, human. The procedure:
Proteins were extracted from total cell lysate, as previously described.[61] Briefly, cell lines were added to a buffer containing 20 mM Tris (pH 7.4), 2 mM EDTA, 0.5 mM EGTA, 50 mM mercaptoethanol, and […] sucrose supplemented with phosphatase and protease inhibitor cocktails (Roche Diagnostics, Monza, Italy). Subsequently, protein samples were sonicated twice for 20′ by using an ultrasonic probe, followed by centrifugation at 10 000g for 10 min at 4 °C. Sample proteins (30 μg) were diluted in 4X NuPage LDS sample buffer (Invitrogen, NP0007), heated at 80 °C for 5 min, and then separated on a Biorad Criterion XT 4–15% Bis–Tris gel (BIO-RAD) by electrophoresis and then transferred to a PVDF membrane (BIO-RAD). Blots were blocked using the Odyssey Blocking Buffer (LI-COR Biosciences) and probed with appropriate antibodies: HO-1 antibody (GeneTex GTX101147), goat polyclonal anti-VEGF (cat. no. sc-1836, Santa Cruz Biotechnology), and rabbit polyclonal anti-β-tubulin (cat n.sc-9104, Santa Cruz Biotechnology) and β-actin antibody (GeneTex GTX109639).
The secondary antibodies goat antirabbit (Odyssey, #926-32211; Odyssey #926-68021) and donkey antigoat IRDye 800CW (cat #926-32214; Li-Cor Biosciences) were used at 1:7000. Blots were scanned, and densitometric analysis was performed with the Odyssey Infrared Imaging System. Values were normalized to β-actin and to β-tubulin.
For orientation: A western blot detects proteins with antibodies after separation by electrophoresis.

Data set [3] in a line: Bidirectional permeability (Caco-2). Format: in vitro ADME. The following applies: human.
The test system of the next data set is H5V cells. Kind of data set: Tube formation assay, H5V endothelial cells with U87MG conditioned medium. The following applies: H5V cells with CM2, medium from U87MG cultured with 10 μM, 48 h. Format: cell-based, murine. The procedure:
Subconfluent U87MG cell cultures were placed in media supplemented with 1% FBS (representing the conditioned medium 1 (CM1) or control) or containing 10 μM of 7l molecule (representing the conditioned medium 2 (CM2)) and incubated at 37 °C for 48 h. Subsequently, the CMs were collected and centrifuged at 2000 rpm for 5 min, and the supernatants were frozen at −80 °C until use. GeltrexTM reduced growth factor basement membrane matrix (Invitrogen) was thawed at 4 °C overnight before use. GeltrexTM matrix was added to a 24-well plate (95 μL/well) and then incubated at 37 °C for 30 min to allow polymerization. Murine microvascular endothelial cells (H5V) were starved overnight in the growth medium, and then the cells were seeded onto the layer of GeltrexTM matrix and cultured with 200 μL of CM1 and CM2 at 37 °C for 48 h. Three randomly selected fields of view were captured with a digital camera (Canon) connected to an inverted microscope (Axio Observer A1; Carl Zeiss, Göttingen, Germany). Tube numbers per field were calculated as the percentage of control.

Setting [4] is: Caco-2, pH 6.5/7.4, tested concentration 10 μM.

`CN(C(=O)Cn1ccnc1)C(c1ccccc1)c1ccc(Cl)cc1` (stereo not drawn) [7l, N-((4-Chlorophenyl)(phenyl)methyl)-2-(1H-imidazol-1-yl)-N-methylacetamide]: in data set [1], the solubility was 196 µM (≈ 66.5 µg/mL). Also, in the data set on U87MG cells, the “cell motility, wound-healing assay (in words)” value is on record as “drastically reduced”. The molecule further came in with a microsomal CLint in data set [2] of 58.3 µL/min/mg. Besides, the half-life in data set [2] (read-out: microsomal stability t1/2) stood at 1.98 h. The “VEGF intracellular expression (in words)” value in the data set on VEGF is reported as “significant reduction”. In addition, the efflux ratio at 10 μM in data set [3] (Caco-2, read-out: efflux ratio (Papp BA/Papp AB)) was found to be 0.44. In data set [3] (setting [4]), this molecule registered a Papp A→B at 10 µM of 44.1 ×10⁻⁶ cm/s and a Papp B→A at 10 µM of 19.4 ×10⁻⁶ cm/s. For the same molecule, in the data set on H5V cells, the “number of tube-like structures (in words)” value was “significantly decreased”.
